Measurements published in PubChem BioAssay (NCI).
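These data come from cells grown in 96-well plates and exposed to compound for 48 hours at five concentrations. Here, GI50 denotes the concentration required for 50% inhibition of growth. Definition used: TGI = concentration required for complete inhibition of growth.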

Legend:
Test in all cases: NCI tumour cell line growth inhibition, 48 h
[1] = test system: OVCAR-5 ovarian
[2] = test system: UACC-62 melanoma
[3] = test system: BT-549 breast
[4] = test system: CCRF-CEM leukemia
[5] = test system: MDA-MB-231 breast
[6] = test system: A498 renal
[7] = test system: HCT-116 colon
[8] = test system: SF-295 CNS
[9] = test system: OVCAR-4 ovarian
[10] = test system: SK-MEL-28 melanoma
[11] = test system: IGROV1 ovarian
[12] = test system: HCT-15 colon
[13] = test system: SW-620 colon
[14] = test system: RPMI-8226 leukemia
[15] = test system: K-562 leukemia
[16] = test system: HT29 colon
[17] = test system: CAKI-1 renal
[18] = test system: SNB-19 CNS
[19] = test system: NCI-H226 lung
[20] = test system: SR leukemia
[21] = test system: RXF 393 renal
[22] = test system: OVCAR-8 ovarian
[23] = test system: HOP-92 NSCLC
[24] = test system: SN12C renal
[25] = test system: M14 melanoma
[26] = test system: U251 CNS
[27] = test system: HCC-2998 colon
[28] = test system: MALME-3M melanoma
[29] = test system: ACHN renal
[30] = test system: NCI/ADR-RES ovarian
[31] = test system: SK-MEL-2 melanoma
[32] = test system: HL-60(TB) leukemia
[33] = test system: NCI-H522 lung
[34] = test system: MDA-MB-435
[35] = test system: SK-MEL-5 melanoma
[36] = test system: SK-OV-3 ovarian
[37] = test system: KM12 colon
[38] = test system: SNB-75 CNS
[39] = test system: DU-145 prostate
[40] = test system: A549 NSCLC
[41] = test system: COLO 205 colon
[42] = test system: HS 578T breast
[43] = test system: SF-268 CNS
[44] = test system: EKVX NSCLC
[45] = test system: 786-0 renal
[46] = test system: NCI-H23 lung
[47] = test system: LOX IMVI melanoma
[48] = test system: UACC-257 melanoma
[49] = test system: TK-10 renal
[50] = test system: HOP-62 NSCLC
[51] = test system: SF-539 CNS
[52] = test system: PC-3 prostate
[53] = test system: OVCAR-3 ovarian
[54] = test system: MCF7 breast
[55] = test system: UO-31 renal
[56] = test system: NCI-H460 lung
[57] = test system: MOLT-4 leukemia

O=C1/C(=C/c2cccc(Br)c2)COc2ccc(O)c(O)c21
GI50 [1]: 1.93 µM
TGI [1]: 3.74 µM
GI50 [2]: 1.64 µM
TGI [2]: 3.14 µM
GI50 [3]: 2.03 µM
TGI [3]: 4.35 µM
GI50 [4]: 0.312 µM
TGI [4]: 1.69 µM
GI50 [5]: 1.4 µM
TGI [5]: 3.35 µM
GI50 [6]: 2.01 µM
TGI [6]: 4.74 µM
GI50 [7]: 1.08 µM
TGI [7]: 2.47 µM
GI50 [8]: 2.75 µM
TGI [8]: 7.39 µM
GI50 [9]: 1.51 µM
TGI [9]: 2.85 µM
GI50 [10]: 1.75 µM
TGI [10]: 3.33 µM
GI50 [11]: 0.996 µM
TGI [11]: 2.68 µM
GI50 [12]: 0.866 µM
TGI [12]: 3.88 µM
GI50 [13]: 1.06 µM
TGI [13]: 3.52 µM
GI50 [14]: 0.248 µM
TGI [14]: 0.649 µM
GI50 [15]: 0.387 µM
TGI [15]: 20.7 µM
GI50 [16]: 1.83 µM
TGI [16]: 3.62 µM
GI50 [17]: 1.21 µM
TGI [17]: 2.47 µM
GI50 [18]: 1.53 µM
TGI [18]: 3.04 µM
GI50 [19]: 2.4 µM
TGI [19]: 6.81 µM
GI50 [20]: 0.349 µM
TGI [20]: 2.81 µM
GI50 [21]: 1.38 µM
TGI [21]: 2.84 µM
GI50 [22]: 1.06 µM
TGI [22]: 2.86 µM
GI50 [23]: 1.89 µM
TGI [23]: 7.21 µM
GI50 [24]: 1.2 µM
TGI [24]: 3.04 µM
GI50 [25]: 1.6 µM
TGI [25]: 3.47 µM
GI50 [26]: 1.1 µM
TGI [26]: 2.29 µM
GI50 [27]: 1.67 µM
TGI [27]: 3.1 µM
GI50 [28]: 1.49 µM
TGI [28]: 3.06 µM
GI50 [29]: 1.24 µM
TGI [29]: 2.5 µM
GI50 [30]: 2.03 µM
TGI [30]: 10.3 µM
GI50 [31]: 1.53 µM
TGI [31]: 3.11 µM
GI50 [32]: 0.969 µM
TGI [32]: 4.05 µM
GI50 [33]: 0.175 µM
TGI [33]: 0.361 µM
GI50 [34]: 1.23 µM
TGI [34]: 2.76 µM
GI50 [35]: 1.63 µM
TGI [35]: 3.03 µM
GI50 [36]: 3.12 µM
TGI [36]: 10.6 µM
GI50 [37]: 1.48 µM
TGI [37]: 3.64 µM
GI50 [38]: 0.933 µM
TGI [38]: 3.83 µM
GI50 [39]: 1.42 µM
TGI [39]: 2.99 µM
GI50 [40]: 1.83 µM
TGI [40]: 4.82 µM
GI50 [41]: 1.54 µM
TGI [41]: 3 µM
GI50 [42]: 2.28 µM
TGI [42]: 7.53 µM
GI50 [43]: 1.63 µM
TGI [43]: 4.08 µM
GI50 [44]: 1.78 µM
TGI [44]: 3.52 µM
GI50 [45]: 1.46 µM
TGI [45]: 4.1 µM
GI50 [46]: 1.74 µM
TGI [46]: 4.25 µM
GI50 [47]: 0.658 µM
TGI [47]: 2.04 µM
GI50 [48]: 1.54 µM
TGI [48]: 3.03 µM
GI50 [49]: 1.7 µM
TGI [49]: 3.1 µM
GI50 [50]: 1.84 µM
TGI [50]: 3.74 µM
GI50 [51]: 1.58 µM
TGI [51]: 3.45 µM
GI50 [52]: 0.79 µM
TGI [52]: 3.45 µM
GI50 [53]: 0.675 µM
TGI [53]: 2.07 µM
GI50 [54]: 0.649 µM
TGI [54]: 2.56 µM
GI50 [55]: 0.958 µM
TGI [55]: 2.14 µM
GI50 [56]: 2.14 µM
TGI [56]: 5.42 µM
GI50 [57]: 0.927 µM
TGI [57]: 10.8 µM
